Measurements taken from the supplement of paper PMC10307832.

How the values were obtained:
Experiment in all cases: relative viability (nuclei count vs DMSO), 5 days (fraction); higher = more cells survive
[1] = compound: CN(C)CC1=CC(=CC=C1)N=C(C2=CC=CC=C2)C3=C(NC4=C3C=CC(=C4)C(=O)N(C)C)O
How it was run: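 Viability was read as treated-well nuclei divided by vehicle-well nuclei, using the median across plates. Lung cancer cell lines in 1536-well plates were kept overnight at 37 °C, pinned with five √10-spaced library-drug doses, and after 5 days were Hoechst-stained, imaged at 4× and counted in MetaXpress. Plates passed only with control CV below 25% and at least one doubling.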

[2] = compound: CN(C)CC1=CC(=CC=C1)N=C(C2=CC=CC=C2)C3=C(NC4=C3C=CC(=C4)C(=O)N(C)C)O + NC(=O)Nc1cc(-c2cccc(F)c2)sc1C(=O)N[C@H]1CCCNC1 [AZD7762] (partner 0.2 µM)
How it was run: (§1)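 Lung cancer cell lines in 1536-well plates were dosed by pin tool the day after seeding, either with one drug alone or with a fixed anchor-drug dose plus five library-drug doses (not always all listed) in √10 steps. After 5 days, cells were fixed and their nuclei stained in one step (final 0.05% Triton X-100, 1% formaldehyde, 1 ug/ml Hoechst), then counted on 4× images. Relative viability is the nuclei count in treated wells divided by that in vehicle wells. Values are medians of duplicate plates.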

[3] = compound: CN(C)CC1=CC(=CC=C1)N=C(C2=CC=CC=C2)C3=C(NC4=C3C=CC(=C4)C(=O)N(C)C)O + CC(=O)Nc1cccc(-n2c(=O)n(C3CC3)c(=O)c3c(Nc4ccc(I)cc4F)n(C)c(=O)c(C)c32)c1 [Trametinib] (partner 0.02 µM)
How it was run: as §1

[4] = compound: CN(C)CC1=CC(=CC=C1)N=C(C2=CC=CC=C2)C3=C(NC4=C3C=CC(=C4)C(=O)N(C)C)O + Cc1cc(Nc2cc(N3CCN(C)CC3)nc(Sc3ccc(NC(=O)C4CC4)cc3)n2)n[nH]1 [Tozasertib] (partner 0.1 µM)
How it was run: as §1

Cell Line	relative viability ([1]; 0.08 µM)	relative viability ([1]; 0.253 µM)	relative viability ([1]; 0.8 µM)	relative viability ([1]; 2.53 µM)	relative viability ([1]; 8 µM)	relative viability ([2]; first compound 0.08 µM)	relative viability ([2]; first compound 0.253 µM)	relative viability ([2]; first compound 0.8 µM)	relative viability ([2]; first compound 2.53 µM)	relative viability ([2]; first compound 8 µM)	relative viability ([3]; first compound 0.08 µM)	relative viability ([3]; first compound 0.253 µM)	relative viability ([3]; first compound 0.8 µM)	relative viability ([3]; first compound 2.53 µM)	relative viability ([3]; first compound 8 µM)	relative viability ([4]; first compound 0.08 µM)	relative viability ([4]; first compound 0.253 µM)	relative viability ([4]; first compound 0.8 µM)	relative viability ([4]; first compound 2.53 µM)	relative viability ([4]; first compound 8 µM)
NCI-H1666	1.07	0.994	0.959	1.11	1.12	0.908	0.857	0.847	0.764	0.852	0.966	0.879	0.73	0.85	0.928	0.642	0.59	0.675	0.603	0.868
SW 900	0.997	0.886	0.983	0.934	0.937	0.664	0.581	0.55	0.649	0.685	0.819	0.738	0.702	1.04	1.24	0.669	0.58	0.519	0.562	0.552
NCI-H1993	0.979	0.98	0.717	0.944	1.07	0.59	0.705		0.937	0.877	0.464	0.513		0.53	0.592	0.623	0.525	0.524	0.584	0.646
NCI-H650	0.941	1.02	1.1	0.963	0.782	1.4	0.938	1.16	0.897	0.855	0.974	1.17	0.975	0.812	0.964	0.815	0.754	0.683	0.718	0.663
LCLC-103H	0.951	1.07	0.931	0.986	0.915	0.686	0.838	0.794	0.666	0.645	0.707	0.623	0.642	0.675	0.619	0.455	0.524	0.551	0.516	0.509
NCI-H2085	1.02	1.02	0.98	1.02	1.02	1.03	0.978	0.995	0.988	0.969	0.509	0.568	0.599	0.643	0.545	0.862	0.901	0.793	0.781	0.829
NCI-H23	1.09	1.03	1.06	1.02	0.815		0.243	0.255	0.324	0.319		0.503	0.357	0.404	0.339	0.355	0.454	0.413	0.411	0.366
NCI-H1355	1.03	0.992	0.836	0.993	0.979	0.869	0.665	0.597	0.541	0.641	0.472	0.407	0.314	0.392	0.51	0.551	0.616	0.414	0.539	0.428
NCI-H1651	1.01	0.954	1.04	0.897	0.978	0.483	0.474	0.414	0.435	0.397	0.857	0.819	0.863	0.851	0.788	0.621	0.755	0.71	0.595	0.692
HCC-78	0.993	0.95	0.967	1.02	0.958	0.464	0.772	0.568	0.639	0.831	0.79	0.708	0.868	0.785	0.65	0.507	0.426	0.403	0.383	0.364
RERF-LC-KJ	1.08	0.992	0.907	0.982	0.996	1.02	1	0.796	1.05	0.866	0.911	0.837	0.844	0.907	0.846	0.494	0.493	0.536	0.523	0.408
LC-2-ad	1.01	1.04	1.08	0.925	0.84	0.842	0.819	0.812	0.829	0.867	0.86	0.885	0.893	0.866	0.841	0.503	0.409	0.415	0.492	0.407
NCI-H358	0.94	0.789	0.705	0.879	0.784	0.635	0.463	0.419	0.471	0.485	0.146	0.171	0.125	0.092	0.129	0.105	0.0937	0.0915	0.096	0.116
NCI-H1734	1.1	1.05	1.04	0.962	0.824	0.644	0.532	0.506	0.56	0.526	0.625	0.701	0.735	0.698	0.579	0.259	0.262	0.227	0.268	0.247
HOP-62	1.05	0.965	1.04	0.981	0.97	0.505	0.566	0.496	0.693	0.673	0.363	0.361	0.391	0.362	0.339	0.389	0.383	0.364	0.334	0.376
HCC-15	0.996	0.995	1.03	1.05	1.09	1.44	1.2	1.24	1.4	1.31	0.362	0.392	0.356	0.389	0.434	0.424	0.387	0.39	0.365	0.453
HCC-44	1.08	0.987	1.03	0.949	1.05	1	0.987	1.03	0.946	1.04	1.04	1.04	1.08	1.04	1.12	1.08	0.836	1.03	0.927	0.862
NCI-H460	0.981	1.04	1.04	0.933	1.01	0.667	0.511	0.636		0.664	0.142	0.133	0.195	0.0771	0.163	0.292	0.574	0.62	0.426	0.397
NCI-H3122	0.948	0.94	1.08	1.01	1.02	1.01	0.967	1.03	1.02	1.07	0.225	0.203	0.235	0.245	0.243	0.416	0.359	0.448	0.383	0.438
NCI-H522	1.1	1.01	0.829	0.958	0.913	0.972	0.871	0.855	0.953	0.736	0.709	0.84	0.735	0.746	0.667	0.544	0.46	0.546	0.587	0.62
A-427	1.02	1.07	0.974	0.963	0.98	0.75	0.666	0.712	0.676	0.631	0.752	0.787	0.776	0.686	0.663	0.22	0.188	0.182	0.213	0.147
LU99A	0.893	0.934	0.966	0.885	0.87	0.45	0.335	0.337	0.24	0.299	0.504	0.499	0.571	0.482	0.411	0.312	0.3	0.384	0.22	0.198
HCC-366	1	0.985	1.01	0.978	0.955	0.303	0.252	0.248	0.157	0.315	0.47	0.323	0.325	0.339	0.24	0.17	0.133	0.131	0.153	0.118
CAL-12T	1.07	1.02	1.09	1.01	1.12	0.627	0.668	0.58	0.647	0.687	0.389	0.399	0.338	0.459	0.354	0.375	0.342	0.311	0.308	0.292
NCI-H1975	0.955	0.915	0.85	0.926	0.789	0.756	0.761	0.68	0.692	0.707	0.368	0.323	0.304	0.298	0.238	0.807	0.785	0.736	0.757	0.708
NCI-H2087	0.915	1.07	1.04	0.978	0.956	1.13	1.28	1.36	1.45	1.33	0.21	0.247	0.201	0.196	0.166	0.242	0.233	0.265	0.27	0.233
NCI-H441	1.03	1.14	1.2	0.984	0.923	1.19	1.06	1	1.2	1.06	0.495	0.508	0.354	0.444	0.462	0.625	0.603	0.67	0.634	0.588
HCC-827	0.999	1.03	1.06	0.953	0.916	0.232	0.26	0.156	0.229	0.182	0.541	0.491	0.429	0.495	0.49	0.435	0.457	0.376	0.408	0.396
NCI-H2126	1.01	0.988	0.941	1.03	0.903	0.974	0.96	0.931	0.943	0.976	0.6	0.59	0.484	0.602	0.55	0.961	0.849	0.856	0.825	0.837
